Results: ChEMBL document CHEMBL1201862, “PubChem BioAssay data set” (2004)
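Values below derive from 48-hour exposures of cells grown in 96-well plates, with endpoints linearly interpolated between the two concentrations bracketing the appropriate inhibition level. The concentration for 50% growth inhibition is given as GI50.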 Calls of active or inactive are those of the source. Rule as the data show it: active = GI50 up to about 1.1 µM and inactive = higher.

Assays:
Test in all cases: inhibition of tumour cell growth, NCI panel, 48 h
[1] = tested on: HT-29
[2] = tested on: SK-MEL-5
[3] = tested on: NCI-H460
[4] = tested on: K562
[5] = tested on: NCI-H226
[6] = tested on: ACHN
[7] = tested on: BT-549
[8] = tested on: HL-60
[9] = tested on: SN12C
[10] = tested on: 786-0
[11] = tested on: A498
[12] = tested on: EKVX
[13] = tested on: HCC 2998
[14] = tested on: DU-145
[15] = tested on: NCI-H23
[16] = tested on: LOX IMVI
[17] = tested on: NCI-H522
[18] = tested on: NCI/ADR-RES
[19] = tested on: SW-620

SMILES	GI50 [1]	GI50 [2]	GI50 [3]	GI50 [4]	GI50 [5]	GI50 [6]	GI50 [7]	GI50 [8]	GI50 [9]	GI50 [10]	GI50 [11]	GI50 [12]	GI50 [13]	GI50 [14]	GI50 [15]	GI50 [16]	GI50 [17]	GI50 [18]	GI50 [19]
Oc1c(C(Nc2ccccn2)c2ccccc2)ccc2cccnc12 (centres undefined)	4.55 µM (inactive)	3.66 µM (inactive)	2.11 µM (inactive)	3.22 µM (inactive)	2.59 µM (inactive)	3.56 µM (inactive)	5.25 µM (inactive)	2.28 µM (inactive)	1.24 µM (inactive)	2.76 µM (inactive)	10.2 µM (inactive)	3.01 µM (inactive)	49.9 µM (inactive)	4.05 µM (inactive)	3.6 µM (inactive)	2.77 µM (inactive)	2.68 µM (inactive)	1.82 µM (inactive)	7.13 µM (inactive)
CCc1nnc(S)n1/N=C\c1ccc(-c2ccccc2Cl)o1	33.4 µM (inactive)	14.3 µM (inactive)	32.4 µM (inactive)	21.9 µM (inactive)	17.5 µM (inactive)	60.8 µM (inactive)	26.4 µM (inactive)	20.4 µM (inactive)	37.2 µM (inactive)	30.8 µM (inactive)	36.6 µM (inactive)	36.4 µM (inactive)	27.3 µM (inactive)	41.3 µM (inactive)	26.4 µM (inactive)	23.5 µM (inactive)	24.1 µM (inactive)	22 µM (inactive)	27.7 µM (inactive)
COc1cc(C2SCC(=O)N2c2cc(Cl)c(Cl)cc2Cl)cc(OC)c1OC (centres undefined)	76.7 µM (inactive)	25.6 µM (inactive)	36.3 µM (inactive)	42 µM (inactive)	63.1 µM (inactive)	42.3 µM (inactive)	25.4 µM (inactive)	28.2 µM (inactive)	36.5 µM (inactive)	38.2 µM (inactive)	63 µM (inactive)	37.3 µM (inactive)	32.1 µM (inactive)	41.3 µM (inactive)	50.5 µM (inactive)	33.7 µM (inactive)	46 µM (inactive)	34.4 µM (inactive)	82 µM (inactive)
CCOC(NC(=O)CC)(C(F)(F)F)C(F)(F)F	> 100 µM (inactive)	> 100 µM (inactive)	> 100 µM (inactive)	> 100 µM (inactive)	> 100 µM (inactive)	> 100 µM (inactive)	> 100 µM (inactive)	> 100 µM (inactive)	> 100 µM (inactive)	> 100 µM (inactive)	> 100 µM (inactive)	> 100 µM (inactive)	> 100 µM (inactive)	> 100 µM (inactive)	> 100 µM (inactive)	> 100 µM (inactive)	> 100 µM (inactive)	> 100 µM (inactive)	> 100 µM (inactive)
NC(=O)C1CCCN1C(=O)C(Cc1c[nH]cn1)NC(=O)C1CCCC1 (centres undefined)	> 100 µM (inactive)	> 100 µM (inactive)	> 100 µM (inactive)	> 100 µM (inactive)	> 100 µM (inactive)	> 100 µM (inactive)	> 100 µM (inactive)	> 100 µM (inactive)	> 100 µM (inactive)	> 100 µM (inactive)	23.4 µM (inactive)	> 100 µM (inactive)	> 100 µM (inactive)	> 100 µM (inactive)	> 100 µM (inactive)	> 100 µM (inactive)	> 100 µM (inactive)	> 100 µM (inactive)	> 100 µM (inactive)
CCOC(=O)c1c(N/C(S)=N/c2ccccc2)sc2c1CCOC2	89.9 µM (inactive)	53.1 µM (inactive)	40.2 µM (inactive)	> 100 µM (inactive)	> 100 µM (inactive)	97.3 µM (inactive)	2.08 µM (inactive)	24 µM (inactive)	48.8 µM (inactive)	> 100 µM (inactive)	37 µM (inactive)	79.6 µM (inactive)	70.1 µM (inactive)	80.5 µM (inactive)	26.4 µM (inactive)	52.7 µM (inactive)	64.9 µM (inactive)	60.4 µM (inactive)	> 100 µM (inactive)
O=C(NC(OCc1ccccc1)(C(F)(F)F)C(F)(F)F)OCc1ccccc1	18 µM (inactive)	15.8 µM (inactive)	16.1 µM (inactive)	17.1 µM (inactive)	14.1 µM (inactive)	15.7 µM (inactive)	15.4 µM (inactive)	17.1 µM (inactive)	15.9 µM (inactive)	16.5 µM (inactive)	17.7 µM (inactive)	15.2 µM (inactive)	15.4 µM (inactive)	16.6 µM (inactive)	12.9 µM (inactive)	14.5 µM (inactive)	13.6 µM (inactive)	12.6 µM (inactive)	17.3 µM (inactive)
CNC1(c2cc3ccccc3s2)CCCCC1	14.8 µM (inactive)	16.3 µM (inactive)	17.7 µM (inactive)	31.8 µM (inactive)	32.7 µM (inactive)	42.6 µM (inactive)	67 µM (inactive)	< 0.01 µM (active)	38.1 µM (inactive)	19.2 µM (inactive)	33.3 µM (inactive)	0.433 µM (active)	14.9 µM (inactive)	40.1 µM (inactive)	57.4 µM (inactive)	19.9 µM (inactive)	12.7 µM (inactive)	33.3 µM (inactive)	< 0.01 µM (active)
O=Cc1ccc(-c2cccc([N+](=O)[O-])c2)s1	> 100 µM (inactive)	> 100 µM (inactive)	> 100 µM (inactive)	72.1 µM (inactive)	67.5 µM (inactive)	> 100 µM (inactive)	81.1 µM (inactive)	64.4 µM (inactive)	> 100 µM (inactive)	80 µM (inactive)	16.9 µM (inactive)	71.4 µM (inactive)	> 100 µM (inactive)	61 µM (inactive)	> 100 µM (inactive)	> 100 µM (inactive)	> 100 µM (inactive)	94.6 µM (inactive)	> 100 µM (inactive)
CN(CCC#N)c1ccc(/C=C2\SC(=S)NC2=O)cc1	87.1 µM (inactive)	52 µM (inactive)	25.9 µM (inactive)	45.4 µM (inactive)	> 100 µM (inactive)	62.4 µM (inactive)	21.7 µM (inactive)	24.3 µM (inactive)	80.4 µM (inactive)	34.8 µM (inactive)	30.1 µM (inactive)	> 100 µM (inactive)	51.6 µM (inactive)	73.6 µM (inactive)	39.5 µM (inactive)	8.2 µM (inactive)	71.1 µM (inactive)	> 100 µM (inactive)	58.2 µM (inactive)
CN(C)c1nc2nonc2nc1Nc1ccccc1	> 100 µM (inactive)	> 100 µM (inactive)	> 100 µM (inactive)	> 100 µM (inactive)	> 100 µM (inactive)	> 100 µM (inactive)	> 100 µM (inactive)	> 100 µM (inactive)	> 100 µM (inactive)	> 100 µM (inactive)	> 100 µM (inactive)	> 100 µM (inactive)	> 100 µM (inactive)	> 100 µM (inactive)	> 100 µM (inactive)	> 100 µM (inactive)	> 100 µM (inactive)	> 100 µM (inactive)	> 100 µM (inactive)
